The values below come from patent publication EP3744709B1, “NEW CRYSTAL FORM OF TEMBOTRIONE” (ANHUI JIUYI AGRICULTURE CO., LTD., priority 2018, dated 2020).

Converted amounts (≈) assume the structure as drawn.

The nature of data set [1]: Dissolution rate test (suspension in methanol/water with temperature cycling, decomposition after 14 days). In kind it is physicochemical. As to conditions: suspended in methanol : water 1 : 5 (volume), 10-30° C, 14 days later; for decomposition rate: temperature periodically changed at 0.5K/min. The protocol:
Further, in the present disclosure, the dissolution rate of crystal from D of tembotrione was tested as following: the crystal form D of tembotrione was suspended in a mixture of methanol and water (the volume ratio of methanol : water was 1 : 5) at a temperature of 10-30° C, and the temperature was changed at a rate of 0.5K/min. […] Crystal forms A, B, C and D of tembotrione were suspended in a mixture of methanol and water (the volume ratio of methanol to water was 1 : 5) at a temperature of 10-30° C, and the temperature was periodically changed at a rate of 0.5K/min.

A short description of the next data set: physchem. In kind it is physicochemical. As to conditions: for solubility: 25 °C, thermodynamic from solid; for Solubility, water: pH 4. The procedure: At 25±2°C, 100mL (which may be scaled down) solvent was added in a beaker. A certain mass of crystal forms A, B, C and D of tembotrione were weighted (to ensure insufficient dissolution, tembotrione may be weighted more than once if necessary and the total mass was calculated). The solute was gradually added, continuously stirred and sufficiently dissolved until the solution was exactly saturated (if there was solid precipitation, it was filtrated out and dried, and put back to the undissolved solid). Total mass of the undissolved solid was weighted to calculate the mass of the dissolved solid in 100mL (100g) solvent, i.e., the solubility of the solid in the solvent at the temperature. In the present disclosure, solubility of crystal forms A, B, C and D of tembotrione in several common solvents were tested, and the results were shown in Table 2. Table 2 Solubility of crystal forms A, B, C and D of tembotrione in different solvents

The solubility is the concentration that dissolves in the medium under given conditions. Take `CS(=O)(=O)c1ccc(C(=O)C2C(=O)CCCC2=O)c(Cl)c1COCC(F)(F)F` [crystal form A, 2-[2-chloro-4-methylsulfonyl-3-(2,2,2-trifluoroethoxymethyl)benzoyl]cyclohexane-1,3-dione]: in data set [1], the decomposition rate worked out at 0.1%. Moreover, the solubility in the data set “physchem” (organic solvent or mixture, methanol) stood at 8600 µg/mL (≈ 19.5 mM); in the data set “physchem” (organic solvent or mixture, toluene) it was 80000 µg/mL (≈ 181 mM); in “physchem” (pH 4, aqueous buffer, water) it was 260 µg/mL (≈ 0.59 mM).
Molecule `CS(=O)(=O)c1ccc(C(=O)C2C(=O)CCCC2=O)c(Cl)c1COCC(F)(F)F` [crystal form B, 2-[2-chloro-4-methylsulfonyl-3-(2,2,2-trifluoroethoxymethyl)benzoyl]cyclohexane-1,3-dione] yielded a decomposition rate in data set [1] of 0.4%. For the same molecule, in the data set “physchem”, the “Solubility, methanol” value was 8.8 g/L (≈ 20 mM); the “Solubility, toluene” value came out at 81.0 g/L (≈ 184 mM); the “Solubility, water” value came out at 0.28 g/L (≈ 0.635 mM).
Regarding `CS(=O)(=O)c1ccc(C(=O)C2C(=O)CCCC2=O)c(Cl)c1COCC(F)(F)F` [crystal form C, 2-[2-chloro-4-methylsulfonyl-3-(2,2,2-trifluoroethoxymethyl)benzoyl]cyclohexane-1,3-dione], the decomposition rate in data set [1] came out at 0.15%. For the same molecule, in the data set “physchem”, the “Solubility, methanol” value stood at 8.5 g/L (≈ 19.3 mM); the “Solubility, toluene” value was found to be 80.2 g/L (≈ 182 mM); the “Solubility, water” value turned out to be 0.25 g/L (≈ 0.567 mM).
With `CS(=O)(=O)c1ccc(C(=O)C2C(=O)CCCC2=O)c(Cl)c1COCC(F)(F)F` [crystal form D, 2-[2-chloro-4-methylsulfonyl-3-(2,2,2-trifluoroethoxymethyl)benzoyl]cyclohexane-1,3-dione], in data set [1] (0.5K/min), the dissolution rate entry was “slow”. For the same molecule, the decomposition rate in data set [1] is 0.06%. In “physchem”, the “Solubility, methanol” value is 8.2 g/L (≈ 18.6 mM); the “Solubility, toluene” value was 75.7 g/L (≈ 172 mM); the “Solubility, water” value was 0.22 g/L (≈ 0.499 mM).
